Experiments:
[1] = system: anti-Dsg3 and anti-dsDNA autoantibody production; experiment: MRL/lpr mouse spontaneous autoimmune disease model, autoantibody production; type: in vivo
Description: The primary endpoint of this study was assessment of autoantibody production, including pemphigus-specific anti-Dsg3 antibodies.
The prednisolone dose was selected based on previous reports and corresponds to a high CS dose in humans.
As autoantibodies develop progressively and may follow a different course in each animal, anti-dsDNA antibody levels were measured on week 12 and used to uniformly distribute animals to dosing groups. At week 13, daily treatments were initiated and continued for 6 weeks. Antibodies to dsDNA and Dsg3 were measured at weeks 12, 15, 17 and 19. Skin lesions were inspected visually throughout the study. Effects on other parameters such as proteinuria, as well as general hematological, serological, and histological signs were evaluated at study completion.

[2] = system: autoantibody-mediated cutaneous lesions; experiment: Immunization-induced mouse model of epidermolysis bullosa acquista (EBA); type: in vivo, B6.SJL-H2s mice; conditions: for body weight gain: 6 week treatment, LAS191954 3 mg/kg/day, methylprednisolone 20 mg/kg/day
Description: Induction of experimental EBA was performed as described in […] et al., J Immunol. 2013; 191:2978-2988. Briefly, 6-10 week B6.SJL-[…] mice were immunized with an emulsion of a recombinant protein encompassing the vWFA2 binding domain of mouse type VII collagen (COL7) in adjuvant (Titermax). After immunization, mice were weekly evaluated for the presence and extend of clinical disease, measured as percentage of body surface affected by skin lesions (erythema, blisters, erosions and crusts). […] Treatments were carried out over a 6-week period, and mice were evaluated for the extend of clinical disease (primary endpoint) weekly. […] For better comparability between experiments, the affected body surface area at weeks 1-6 was related to that at inclusion (set at 1). Body weight was monitored weekly during treatment.

[3] = system: anti-KLH antibody response; experiment: Secondary TDAR assay to KLH in mice; type: in vivo
Description: This assay included two immunizations with KLH separated 15 days apart (50 μg KLH/animal, intraperitoneally) and specific IgG anti-KLH levels were measured on day +11 after the second immunization. Administration of test compound (0.3 and 3 mg/kg) started on the day of second immunization (day +1) and then once daily for the next 9 days.

PI3K p110α = PI3K p110α (Homo sapiens, UniProt P42336); conditions: compound pre-incubation time of 30 min
Chain of PI3K p110α (P42336 whole entry): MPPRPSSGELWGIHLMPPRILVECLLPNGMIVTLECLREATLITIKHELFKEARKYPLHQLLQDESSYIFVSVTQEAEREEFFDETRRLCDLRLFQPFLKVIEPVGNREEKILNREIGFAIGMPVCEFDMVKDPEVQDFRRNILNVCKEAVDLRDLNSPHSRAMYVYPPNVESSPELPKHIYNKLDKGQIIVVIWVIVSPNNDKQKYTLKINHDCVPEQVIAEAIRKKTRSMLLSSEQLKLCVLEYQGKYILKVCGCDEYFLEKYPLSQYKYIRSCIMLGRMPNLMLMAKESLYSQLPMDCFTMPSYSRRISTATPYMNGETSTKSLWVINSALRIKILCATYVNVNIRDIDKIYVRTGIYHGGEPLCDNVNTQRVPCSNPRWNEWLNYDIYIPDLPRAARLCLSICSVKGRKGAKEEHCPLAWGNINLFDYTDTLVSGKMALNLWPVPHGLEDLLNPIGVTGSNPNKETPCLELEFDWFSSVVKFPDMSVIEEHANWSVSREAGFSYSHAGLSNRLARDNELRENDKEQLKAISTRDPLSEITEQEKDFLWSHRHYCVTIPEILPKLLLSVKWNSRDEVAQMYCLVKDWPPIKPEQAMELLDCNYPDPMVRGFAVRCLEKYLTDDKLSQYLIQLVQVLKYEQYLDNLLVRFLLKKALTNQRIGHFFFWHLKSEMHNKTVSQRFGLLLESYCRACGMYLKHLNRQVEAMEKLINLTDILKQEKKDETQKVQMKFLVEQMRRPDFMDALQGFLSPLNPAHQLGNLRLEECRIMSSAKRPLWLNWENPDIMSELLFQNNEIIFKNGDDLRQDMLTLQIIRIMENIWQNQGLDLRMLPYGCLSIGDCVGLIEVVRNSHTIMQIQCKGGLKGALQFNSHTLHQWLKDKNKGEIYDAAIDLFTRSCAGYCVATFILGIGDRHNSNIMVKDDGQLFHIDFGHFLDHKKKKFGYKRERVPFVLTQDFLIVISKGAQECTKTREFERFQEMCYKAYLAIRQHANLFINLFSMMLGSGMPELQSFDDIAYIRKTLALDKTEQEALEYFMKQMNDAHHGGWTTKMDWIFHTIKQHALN
Chain of PI3K p110α (P27986 whole entry partner): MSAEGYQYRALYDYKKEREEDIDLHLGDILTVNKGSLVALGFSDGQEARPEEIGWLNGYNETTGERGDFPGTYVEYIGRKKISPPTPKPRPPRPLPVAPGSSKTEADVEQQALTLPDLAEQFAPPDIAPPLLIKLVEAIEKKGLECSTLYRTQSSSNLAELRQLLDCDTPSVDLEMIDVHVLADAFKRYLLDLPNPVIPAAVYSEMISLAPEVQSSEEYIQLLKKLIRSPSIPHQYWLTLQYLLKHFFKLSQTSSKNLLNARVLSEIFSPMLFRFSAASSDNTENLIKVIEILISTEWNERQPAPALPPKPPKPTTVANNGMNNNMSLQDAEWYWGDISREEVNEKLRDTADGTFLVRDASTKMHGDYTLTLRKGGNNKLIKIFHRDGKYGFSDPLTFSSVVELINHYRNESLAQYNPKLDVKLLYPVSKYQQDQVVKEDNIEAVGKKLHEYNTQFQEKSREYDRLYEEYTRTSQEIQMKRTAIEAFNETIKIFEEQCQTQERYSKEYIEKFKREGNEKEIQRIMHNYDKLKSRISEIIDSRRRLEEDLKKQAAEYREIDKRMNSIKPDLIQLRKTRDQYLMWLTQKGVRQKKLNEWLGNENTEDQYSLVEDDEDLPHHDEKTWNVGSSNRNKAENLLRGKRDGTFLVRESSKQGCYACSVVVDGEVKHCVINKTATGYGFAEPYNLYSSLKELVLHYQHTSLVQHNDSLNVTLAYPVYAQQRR

[4] = system: anti-KLH antibody response; experiment: Primary T-dependent antibody response (TDAR) to KLH in mice; type: in vivo
Description: This assay allows a global assessment of the effect of a drug candidate on antigen presentation, helper T lymphocyte function and B lymphocyte dependent antibody production.
In both cases, the administration of the test compound started on the day of sensitization (day +1, KLH 2 mg/mouse, intravenously). […] A possible reason for this discrepancy is that the lymphocyte count of the concurrent vehicle group of the latter study was abnormally lower than usual, which could mask a potential effect of the test compound on this parameter.

PI3K p110β = PI3K p110β (Homo sapiens, UniProt P42338); conditions: compound pre-incubation time of 30 min
Chain of PI3K p110β (P42338 whole entry): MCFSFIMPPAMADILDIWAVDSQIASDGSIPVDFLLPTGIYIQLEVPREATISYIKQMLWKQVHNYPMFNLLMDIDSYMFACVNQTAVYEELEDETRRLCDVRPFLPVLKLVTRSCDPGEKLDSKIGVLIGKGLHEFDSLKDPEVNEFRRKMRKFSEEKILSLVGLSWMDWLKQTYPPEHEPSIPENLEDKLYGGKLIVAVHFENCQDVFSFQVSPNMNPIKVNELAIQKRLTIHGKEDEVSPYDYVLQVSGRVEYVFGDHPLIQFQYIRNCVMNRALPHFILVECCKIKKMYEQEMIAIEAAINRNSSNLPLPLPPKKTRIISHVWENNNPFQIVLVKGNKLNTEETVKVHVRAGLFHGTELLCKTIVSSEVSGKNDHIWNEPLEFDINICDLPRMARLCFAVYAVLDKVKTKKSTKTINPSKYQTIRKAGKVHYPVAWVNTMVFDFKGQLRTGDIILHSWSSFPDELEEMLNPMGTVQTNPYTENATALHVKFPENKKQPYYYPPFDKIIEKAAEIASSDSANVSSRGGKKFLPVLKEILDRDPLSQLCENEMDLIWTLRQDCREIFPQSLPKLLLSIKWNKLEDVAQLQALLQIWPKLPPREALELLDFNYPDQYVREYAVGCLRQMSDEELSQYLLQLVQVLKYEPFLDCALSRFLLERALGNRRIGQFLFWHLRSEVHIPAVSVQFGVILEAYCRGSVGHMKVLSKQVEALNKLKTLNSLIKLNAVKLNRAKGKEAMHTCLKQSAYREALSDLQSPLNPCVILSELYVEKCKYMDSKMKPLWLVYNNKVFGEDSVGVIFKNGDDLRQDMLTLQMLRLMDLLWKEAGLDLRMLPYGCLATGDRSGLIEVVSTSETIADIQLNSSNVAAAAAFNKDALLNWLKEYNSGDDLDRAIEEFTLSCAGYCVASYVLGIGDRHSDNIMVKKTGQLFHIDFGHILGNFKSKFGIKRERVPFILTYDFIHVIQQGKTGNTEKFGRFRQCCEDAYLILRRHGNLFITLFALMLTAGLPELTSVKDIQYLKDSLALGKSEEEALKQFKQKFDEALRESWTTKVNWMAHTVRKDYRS
Chain of PI3K p110β (P27986 whole entry partner): as the sequence (P27986 whole entry partner) above

[5] = system: anti-Dsg3 antibody-induced skin damage; experiment: Neonatal passive transfer model; conditions: for mice with blisters: 8 mice treated
[6] = week 19 versus week 12 (FIG. 3)

C[C@]12C=CC(=O)C=C1CC[C@@H]1[C@@H]2[C@@H](O)C[C@@]2(C)[C@H]1CC[C@]2(O)C(=O)CO [Prednisolone, prednisolone, reference compound]
change of anti-dsDNA antibody levels at the end of treatment [1, 6]: doubled

C[C@H]1C[C@@H]2[C@H]([C@@H](O)C[C@@]3(C)[C@H]2CC[C@]3(O)C(=O)CO)[C@@]2(C)C=CC(=O)C=C12 [Methylprednisolone, reference compound]
body weight gain [2]: diminished the body weight gain

C[C@H](Nc1ncnc(N)c1C#N)c1nn2ccc(C#N)c2c(=O)n1-c1ccccc1 [LAS191954, (S)-2-(1-(6-amino-5-cyanopyrimidin-4-ylamino)ethyl)-4-oxo-3-phenyl-3,4-dihydropyrrolo[1,2-f][1,2,4]triazine-5-carbonitrile]
ID50, secondary IgG antibody responses to KLH ([3]; day +11 after second immunization, 0.3 and 3 mg/kg once daily): <0.3 mg/kg | lymphocyte counts ([3]; secondary TDAR, 0.3 and 3 mg/kg): reduced lymphocyte counts | IC50 (PI3K p110α): 8.22 µM | ID50, primary IgM antibody responses to KLH ([4]; day +5 PI, 4 days of daily treatment, 0.03-10 mg/kg): 0.12 mg/kg | ID50, primary IgG antibody responses to KLH ([4]; day +15 PI, 14-day dosing, 0.03-1 mg/kg): 0.17 mg/kg | lymphocyte count ([4]; primary IgG study): no apparent effect | general health status of the animals ([4]; primary IgM and IgG studies): without apparent effects | WBC counts ([4]; primary IgM study, mainly reduced peripheral blood lymphocytes): lower WBC counts | ID50, anti-Dsg3 and anti-dsDNA autoantibody production ([1]; Mrl/Lpr model, repeated administration): <3 mg/kg | reduction of anti-dsDNA antibody titers [1, 6]: 10% | IC50 (PI3K p110β): 0.0942 µM | % with blisters ([5]; PV IgG + LAS191954 1 mg/kg): 75% | mice with blisters ([5]; PV IgG + LAS191954 1 mg/kg): 6 | % with blisters ([5]; PV IgG + LAS191954 10 mg/kg): 100% | mice with blisters ([5]; PV IgG + LAS191954 10 mg/kg): 8 | effect on anti-Dsg3 antibody-induced skin damage ([5]; mouse, in vivo): no direct effect | body weight gain [2]: not altered | overall disease activity, AUC of clinical score ([2]; LAS191954 orally 3 mg/kg/day, 6 weeks, versus vehicle): significant reduction in the accumulative clinical score
